From PubChem BioAssay (NCI)
Where “and” joins values, the source holds several entries; their conditions need not be identical. Identical values can stand only once.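 All cell lines were grown in 96-well plates and treated with compound for 48 hours. GI50 is the concentration that inhibits growth by half. TGI: concentration producing complete growth inhibition.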

These compounds were tested on MDA-MB-468 breast (assay: inhibition of tumour cell growth, NCI panel, 48 h).

First: COc1ccc(/C=C2/C(=O)N(/C=C3\C(=O)Oc4ccccc4C3=O)C(=NC(C)=O)N2C)cc1OC
Second: COc1cc(NC(=O)c2cc3ccccc3cc2O)c(OC)cc1Cl
The GI50 of the first is higher: greater than 100 µM for the first, 2.51 µM for the second.

First: COc1ccc(-c2cncn2-c2ccc(-c3nc4cc(OC)c(OC)c(OC)c4s3)cc2)cc1N
Second: COc1ccc(-n2nc(C(=O)NCC(=O)Nc3nc4cc(OC)ccc4s3)c3ccccc3c2=O)cc1
The GI50 of the first is 10-fold higher: 8.6 µM for the first, 0.846 µM for the second.

Going from `C=CC(=O)N1CCC(CNc2ncnc(N)c2-c2ccc(Oc3ccccc3)cc2)CC1` to `O=C(Cc1ccc(-c2ccc(OCCN3CCOCC3)cc2)cn1)NCc1ccccc1`, the GI50 falls from 7.29 µM to 0.0246 µM (300-fold).

Compared with `COc1ncc(-c2ccc3ncnc(Nc4cccc(Cl)c4)c3c2)cc1NS(C)(=O)=O`, `CS(=O)(=O)Nc1cccc(-c2ccc3ncnc(Nc4cncc(Cl)c4)c3c2)c1` is 1.6-fold lower in GI50: 0.211 µM for the first, 0.133 µM for the second.

First: CCN(CC)CCOc1ccccc1-n1c(C)ccc1-c1ccccc1
Second: CCCCc1n(Cc2ccc3ccccc3n2)cc[n+]1Cc1ccc2ccccc2c1
The GI50 of the first is 46-fold higher: 10 µM for the first, 0.216 µM for the second.

First: CSc1ccc(/C(=N/N=C(N)N)c2ccc(Cl)cc2)cc1
Second: CCc1cccc2c3c(sc12)C(c1ccc(OC)cc1)C(C#N)=C(/N=C/c1ccc(Cl)cc1)O3 (configuration not stated)
The GI50 of the first is 5.2-fold lower: 0.369 µM for the first, 1.93 µM for the second.

`O=c1[nH]c(=O)n(C2CC(O)C(CO)O2)cc1F` (configuration not stated) and `CCN1C(=O)N[C@H]2[C@@H]3NC(=O)c4ccc(Cl)n4[C@@H]3C[C@]21O` are within 1.5-fold of each other in GI50: 0.25 µM for the first, 0.229 µM for the second.

Compared with `O=C(N/N=C\c1ccc([N+](=O)[O-])cc1)c1ccc2nc(-c3ccc(Br)cc3)[nH]c2c1`, `COc1ccc(/C=N/C2=NNC(C)(c3ccccc3O)N2C(Cc2c[nH]c3ccccc23)C(=O)O)cc1` (configuration not stated) is 2.6-fold higher in GI50: 0.856 µM for the first, 2.21 µM for the second.

Going from `COC(=O)C[C@@H]1CC=CC(=O)/C1=C(O)/C=C/c1ccccc1` to `CCN1Cc2c(/C=C/c3ccccc3)nc3ccc(OC)cc3c2N(c2cccc(Cl)c2)C1`, the GI50 rises from 0.666 µM to 1.9 µM (2.9-fold).

Compared with `NC1=CC(=O)C(=O)c2ccccc21`, `Nc1nc(N)c2cc(S(=O)(=O)c3ccccc3)ccc2n1` is 1.6-fold lower in GI50: 13.2 µM for the first, 8.01 µM for the second.

Compared with `O=C1Nc2cc(-c3ccc(O)cc3)ccc2/C1=C/c1ccc[nH]1`, `COc1ccc2cn3c4ccc(O)cc4[nH]c(=O)c3c2c1` is 1.6-fold higher in GI50: 0.123 µM for the first, 0.195 µM for the second.

First: CC(=O)OCCC/C(=C/c1cc2ccccc2c2ccccc12)[N+](=O)[O-]
Second: NC1=C(/C(N)=N/O)C(c2ccccc2)c2ccc3ccccc3c2O1 (configuration not stated)
The GI50 of the first is 7.3-fold lower: 0.291 µM for the first, 2.13 µM for the second.

Going from `CN1CCC(n2cnc(-c3ccc(F)cc3)c2-c2ccnc(Nc3ccccc3)n2)CC1` to `CN1CCN(c2ccc(NC(=O)c3cncnc3Nc3ccc4c(ccn4Cc4cccc(F)c4)c3)cc2)CC1`, the GI50 falls from 3.03 µM to 1.91 µM (1.6-fold).

Compared with `COc1ccc2c(ccc3oc([N+](=O)[O-])cc32)c1`, `NCCNc1nc2ccc(F)cc2c2c(=O)c3cc(F)ccc3sc12` is 15-fold higher in GI50: 0.121 µM for the first, 1.79 µM for the second.

Going from `Cc1ccc(Nn2c(SCC(=O)Nc3nc(-c4ccccc4)cs3)nc(C)c2C)cc1` to `Cc1nc2sc(C(=O)Nc3cccc(Cl)c3C)c(N)c2cc1C(O)c1ccccc1` (configuration not stated), the GI50 falls from 1.7 µM to 0.0388 µM (44-fold).

Going from `Cc1cc(O)cc(-c2nn(C)cc2-c2cc(N3CCOCC3)nc(-c3cccnc3)n2)c1` to `Fc1cccc(-c2nc(-c3c[nH]c4ncccc34)cs2)c1`, the GI50 rises from 1.31 µM to greater than 100 µM.

First: N#CC1=C(N)Oc2c(ccc3cccnc23)C1c1ccccc1 (configuration not stated)
Second: Nc1ncc(-c2ccc3ncnc(N4CCc5cc(F)c(F)cc54)c3c2)cn1
The GI50 of the first is 7-fold lower: 0.27 µM for the first, 1.89 µM for the second.

Compared with `CCCCCCNC(=O)Oc1ccc(/C(=C(/C)c2ccccc2)c2ccc(OCCN3CCCCCC3)cc2)cc1`, `CC1(C)CC(C(=O)OCCCCCCCCCCC[P+](c2ccccc2)(c2ccccc2)c2ccccc2)C(C)(C)N1O` (configuration not stated) is 56-fold lower in GI50: 4.9 µM for the first, 0.0875 µM for the second.

Compared with `COC(=O)[C@]12CC[C@@H](C)[C@H](C)[C@@H]1C1=CC[C@@H]3[C@@]4(C)C(C=O)=C[C@@](C)(COC(=O)c5ccco5)C4=CC[C@@]3(C)[C@]1(C)CC2`, `C=C(C)[C@@H]1CC[C@]2(COC(=O)c3ccccc3C(=O)O)CC[C@]3(C)[C@H](CC[C@@H]4[C@@]5(C)CC[C@H](OC(=O)c6ccccc6C(=O)O)C(C)(C)[C@@H]5CC[C@]43C)[C@@H]12` is 550-fold higher in GI50: 0.0542 µM for the first, 29.8 µM for the second.

Compared with `O=C(C[n+]1ccn(CC(OCc2ccc(Cl)cc2Cl)c2ccc(Cl)cc2Cl)c1)c1ccc(F)cc1` (configuration not stated), `CCN(CC)CCC(CNc1c(C)cnc2cc(Cl)ccc12)c1ccc(Cl)c(Cl)c1` (configuration not stated) is 2.8-fold higher in GI50: 0.732 µM for the first, 2.06 µM for the second.

Compared with `O=C(Oc1c(Cl)c(Cl)c(Cl)c(Cl)c1Cl)C1CCCN1C(=O)OCc1ccccc1` (configuration not stated), `COc1ccc(C(=O)c2cc(C)c(OC)c(C)c2)c(OC)c1OC(=O)C(Cl)Cl` is 7.3-fold lower in GI50: 2.9 µM for the first, 0.398 µM for the second.

Going from `COC(=O)C(Br)(C(=O)OC)C(Br)C(Br)C(Br)c1ccccc1` (configuration not stated) to `CCC1C[N+]2=C(c3cc(OC)c(OC)cc3CC2)c2c1cc1n2CCc2cc(OC)c(OC)cc2-1` (configuration not stated), the GI50 falls from 1.65 µM to 0.402 µM (4.1-fold).

First: Nc1n[nH]c2cc(F)c([C@@H]3Nc4c(F)cc5[nH]ncc5c4[C@H]4C5CCC(C5)[C@@H]34)cc12 (some centres not stated)
Second: O=C1CCCc2cc3c(cc21)CC1(C3)Cc2cc3c(cc2C1)C(=O)CCC3
The GI50 of the first is 34-fold lower: 0.086 µM for the first, 2.92 µM for the second.

First: COc1ccc(/C=C2/C(=O)N(/C=C3\C(=O)Oc4ccccc4C3=O)C(=NC(C)=O)N2C)cc1OC
Second: COc1cc(NC(=O)c2cc3ccccc3cc2O)c(OC)cc1Cl
The TGI of the first is higher: greater than 100 µM for the first, 8.11 µM for the second.

Compared with `COc1ccc(-c2cncn2-c2ccc(-c3nc4cc(OC)c(OC)c(OC)c4s3)cc2)cc1N`, `COc1ncc(-c2ccc3ncnc(Nc4cccc(Cl)c4)c3c2)cc1NS(C)(=O)=O` is lower in TGI: greater than 100 µM for the first, 0.913 µM for the second.

`C=CC(=O)N1CCC(CNc2ncnc(N)c2-c2ccc(Oc3ccccc3)cc2)CC1` and `O=C(Cc1ccc(-c2ccc(OCCN3CCOCC3)cc2)cn1)NCc1ccccc1` cannot be ordered by TGI: 55.7 µM for the first, greater than 3.57 µM for the second.

Compared with `CCN(CC)CCOc1ccccc1-n1c(C)ccc1-c1ccccc1`, `CCCCc1n(Cc2ccc3ccccc3n2)cc[n+]1Cc1ccc2ccccc2c1` is 27-fold lower in TGI: 24.4 µM for the first, 0.903 µM for the second.

Going from `CSc1ccc(/C(=N/N=C(N)N)c2ccc(Cl)cc2)cc1` to `CCc1cccc2c3c(sc12)C(c1ccc(OC)cc1)C(C#N)=C(/N=C/c1ccc(Cl)cc1)O3` (configuration not stated), the TGI rises from 1.5 µM to 6.68 µM (4.5-fold).

Going from `O=c1[nH]c(=O)n(C2CC(O)C(CO)O2)cc1F` (configuration not stated) to `CCN1C(=O)N[C@H]2[C@@H]3NC(=O)c4ccc(Cl)n4[C@@H]3C[C@]21O`, the TGI falls from 20.6 µM to 1.08 µM (19-fold).

Compared with `O=C(N/N=C\c1ccc([N+](=O)[O-])cc1)c1ccc2nc(-c3ccc(Br)cc3)[nH]c2c1`, `COc1ccc(/C=N/C2=NNC(C)(c3ccccc3O)N2C(Cc2c[nH]c3ccccc23)C(=O)O)cc1` (configuration not stated) is 3.6-fold higher in TGI: 2.06 µM for the first, 7.34 µM for the second.

Compared with `COC(=O)C[C@@H]1CC=CC(=O)/C1=C(O)/C=C/c1ccccc1`, `CCN1Cc2c(/C=C/c3ccccc3)nc3ccc(OC)cc3c2N(c2cccc(Cl)c2)C1` is 1.7-fold higher in TGI: 2.15 µM for the first, 3.67 µM for the second.

First: NC1=CC(=O)C(=O)c2ccccc21
Second: Nc1nc(N)c2cc(S(=O)(=O)c3ccccc3)ccc2n1
The TGI of the first is lower: 28.5 µM for the first, greater than 100 µM for the second.

`O=C1Nc2cc(-c3ccc(O)cc3)ccc2/C1=C/c1ccc[nH]1` and `COc1ccc2cn3c4ccc(O)cc4[nH]c(=O)c3c2c1` are within 1.5-fold of each other in TGI: 0.756 µM for the first, 0.678 µM for the second.

Going from `CC(=O)OCCC/C(=C/c1cc2ccccc2c2ccccc12)[N+](=O)[O-]` to `NC1=C(/C(N)=N/O)C(c2ccccc2)c2ccc3ccccc3c2O1` (configuration not stated), the TGI rises from 1.06 µM to greater than 60 µM.

Compared with `CN1CCC(n2cnc(-c3ccc(F)cc3)c2-c2ccnc(Nc3ccccc3)n2)CC1`, `CN1CCN(c2ccc(NC(=O)c3cncnc3Nc3ccc4c(ccn4Cc4cccc(F)c4)c3)cc2)CC1` is 1.5-fold lower in TGI: 10.4 µM for the first, 6.92 µM for the second.

First: COc1ccc2c(ccc3oc([N+](=O)[O-])cc32)c1
Second: NCCNc1nc2ccc(F)cc2c2c(=O)c3cc(F)ccc3sc12
The TGI of the first is 9.9-fold lower: 0.338 µM for the first, 3.34 µM for the second.

Compared with `Cc1ccc(Nn2c(SCC(=O)Nc3nc(-c4ccccc4)cs3)nc(C)c2C)cc1`, `Cc1nc2sc(C(=O)Nc3cccc(Cl)c3C)c(N)c2cc1C(O)c1ccccc1` (configuration not stated) is 2.5-fold higher in TGI: 6.67 µM for the first, 16.9 µM for the second.

First: Cc1cc(O)cc(-c2nn(C)cc2-c2cc(N3CCOCC3)nc(-c3cccnc3)n2)c1
Second: Fc1cccc(-c2nc(-c3c[nH]c4ncccc34)cs2)c1
The TGI of the first is lower: 5.63 µM for the first, greater than 100 µM for the second.

First: N#CC1=C(N)Oc2c(ccc3cccnc23)C1c1ccccc1 (configuration not stated)
Second: CS(=O)(=O)Nc1cccc(-c2ccc3ncnc(Nc4cncc(Cl)c4)c3c2)c1
The TGI of the first is 1.7-fold higher: 0.916 µM for the first, 0.55 µM for the second.

Going from `CCCCCCNC(=O)Oc1ccc(/C(=C(/C)c2ccccc2)c2ccc(OCCN3CCCCCC3)cc2)cc1` to `CC1(C)CC(C(=O)OCCCCCCCCCCC[P+](c2ccccc2)(c2ccccc2)c2ccccc2)C(C)(C)N1O` (configuration not stated), the TGI falls from 19.5 µM to 0.637 µM (31-fold).

Compared with `COC(=O)[C@]12CC[C@@H](C)[C@H](C)[C@@H]1C1=CC[C@@H]3[C@@]4(C)C(C=O)=C[C@@](C)(COC(=O)c5ccco5)C4=CC[C@@]3(C)[C@]1(C)CC2`, `C=C(C)[C@@H]1CC[C@]2(COC(=O)c3ccccc3C(=O)O)CC[C@]3(C)[C@H](CC[C@@H]4[C@@]5(C)CC[C@H](OC(=O)c6ccccc6C(=O)O)C(C)(C)[C@@H]5CC[C@]43C)[C@@H]12` is higher in TGI: 1.94 µM for the first, greater than 100 µM for the second.

First: O=C(C[n+]1ccn(CC(OCc2ccc(Cl)cc2Cl)c2ccc(Cl)cc2Cl)c1)c1ccc(F)cc1 (configuration not stated)
Second: CCN(CC)CCC(CNc1c(C)cnc2cc(Cl)ccc12)c1ccc(Cl)c(Cl)c1 (configuration not stated)
The TGI of the first is 2.1-fold lower: 2.2 µM for the first, 4.64 µM for the second.

First: Nc1ncc(-c2ccc3ncnc(N4CCc5cc(F)c(F)cc54)c3c2)cn1
Second: Nc1n[nH]c2cc(F)c([C@@H]3Nc4c(F)cc5[nH]ncc5c4[C@H]4C5CCC(C5)[C@@H]34)cc12 (some centres not stated)
The TGI of the first is 31-fold higher: 7.79 µM for the first, 0.25 µM for the second.

First: O=C(Oc1c(Cl)c(Cl)c(Cl)c(Cl)c1Cl)C1CCCN1C(=O)OCc1ccccc1 (configuration not stated)
Second: COC(=O)C(Br)(C(=O)OC)C(Br)C(Br)C(Br)c1ccccc1 (configuration not stated)
The TGI of the first is 3.6-fold higher: 12.6 µM for the first, 3.53 µM for the second.

Compared with `CCC1C[N+]2=C(c3cc(OC)c(OC)cc3CC2)c2c1cc1n2CCc2cc(OC)c(OC)cc2-1` (configuration not stated), `O=C1CCCc2cc3c(cc21)CC1(C3)Cc2cc3c(cc2C1)C(=O)CCC3` is 11-fold higher in TGI: 5.49 µM for the first, 62.7 µM for the second.

With `CC[C@H](C)C(=O)O[C@H]1C[C@@H](C)C=C2C=C[C@H](C)[C@H](CC[C@@H]3C[C@@H](O)CC(=O)O3)[C@H]21` the GI50 was 2.03 µM and 2.84 µM.

With `CC[C@H](C)C(=O)O[C@H]1C[C@@H](C)C=C2C=C[C@H](C)[C@H](CC[C@@H]3C[C@@H](O)CC(=O)O3)[C@H]21` the TGI was 14.6 µM and 14.8 µM.
